We go through one compound from patent US9089561B2, “Methods for treating depression, neurodegeneration, inhibiting amyloid β deposition, delaying senescence, and extending life spans with heterocyclic compounds” (ZENYAKU KOGYO KABUSHIKI KAISHA, priority 2006, dated 2015).

Series [1] deals with gerbil transient forebrain ischemia model. Kind of series: delayed neuronal death in hippocampus CA1 region, gerbil transient forebrain ischemia model. The series is classed as in vivo. The note with it: four days after reperfusion. On the procedure:
Gerbils (male, weighing approximately 55 to 80 g) were pinched with an exposured bilateral common carotid artery by microclip to cause the cerebral ischemia under 2% halothane inhalation anesthesia. After four minutes of ischemia, the microclip was removed to reperfuse the cerebral ischemia and the anesthesia was stopped. Four days after the reperfusion, the brain was removed and formalin-fixed. Sections of 4 μm in thickness were prepared and stained with hematoxylin-eosin. Surviving cells in the entire hippocampus CA1 field on both sides of each specimen were counted using a micrometer under the microscope. The number of surviving cells per 0.5 mm was obtained.
Compound 24 was suspended in 1% HPC and orally given one hour before the cerebral ischemia and 5 hours after the reperfusion. Then, two doses per day were given from the following day to the third day since the perfusion. The surviving cell count in the hippocampus CA1 field was expressed by the average±standard error. The Mann-Whitney's U test was used to obtain significant differences. The effective oral dosage of Compound 24 was plotted as abscissa and the surviving cell count/0.5 mm was plotted as ordinate.

In series [2] the test system is senescene accelerated mice (SAMP8). As to the kind of experiment: amyloid β deposition in the hippocampus by amyloid β immunohistochemistry. The format is in vivo. Conditions: 0.002, 0.01 and 0.1 mg/kg/day in drinking water for 2 months, vs tap water. On the procedure:
Senescene accelerated mice (SAMP8) (male, 8 months old at the beginning of the study) were used for experiment. […] Eight weeks after the dosing, the mouse brain was removed, Methacarn-fixed (methanol:chloroform: acetic acid=6:3:1), and paraffin-embedded. Then, sections of 8 μm in thickness were prepared using a microtome.
The sections were immunostained with streptavidin-biotin using a VECTASTATIN ABC kit. After one hour of incubation in 10% normal goat serum, the anti-amyloid β (Aβ) antibody was diluted with PBS to ten fold and incubated at 4° C. overnight. The following day, PBS rinsing, 1.5 hours of incubation with biotinylated anti-rabbit secondary antibody, PBS rinsing, and 1.5 hours of incubation with peroxidase-labeled streptavidin were conducted. The immunoreaction was visualized with DAB and specimens were prepared.
Immunoreactive Aβ-like granules in the hippocampus were counted under the microscope. The Aβ-like immunoreactive granule was observed as brown deposits in the hippocampus. The count was made for one section per individual.

For series [3] the test system is unchanged. As to the kind of experiment: grading scores as aging indicator in senescene accelerated mice. The format is in vivo. The method, then: (§1) Senescene accelerated mice (SAMP8) (male, 8 months old at the beginning of the study) were used in the study.
(§2) Compound 24 dissolved in tap water was given to the senescene accelerated mice at a dosage of 0.001, 0.01, or 0.1 mg/kg/day as drinking water. Tap water was given to the control mice as drinking water.
As an aging indicator of senescene accelerated mice, grading scores (Takeda et al., 1981) were measured after 0, 4, 8, 12, and 16 weeks of drinking water dosing in a short term study and after 12, 16, 20, 24, 28, and 32 weeks of drinking water dosing in a long term study.

Series [4] shares this test system. Kind of series: survival rate / average life span of senescene accelerated mice. The series is classed as in vivo. The note with it: 0.01 mg/kg/day in drinking water, vs control group given tap water, at any age in month. The method, then: as §1, §2
FIG. 6 is a graphical representation showing the influence of Compound 24 on the survival rate of senescene accelerated mice (SAMP8). The age in months of mice is plotted as abscissa and the survival rate (%) is plotted as ordinate.

The nature of series [5]: preclinical study (safety).

Consider `O=C1N=C2C=CC=CN2C12Cc1ccccc1C2` [Compound 24, spiro[imidazo[1,2-a]pyridin-2(3H)-one-3,2′-indan]], for which the “surviving cell count in the hippocampus CA1 field” value in series [1] (0.01 mg/kg oral, n=7, average±standard error) is 27.8±1.9 /0.5 mm; in series [1] (0.1 mg/kg oral, n=8, average±standard error), 32.5±9.4 /0.5 mm; in series [1] (1 mg/kg oral, n=9, average±standard error), 44.3±9.4 /0.5 mm. Further, the “number of amyloid β-immunoreactive granules in the hippocampus” value in series [2] was “significantly (*) decreased”. For the same compound, the “grading score vs control, long term study” value in series [3] (0.01 mg/kg/day in drinking water, Weeks 20 to 32) is “significant differences (*, **)”; in series [3] (0.1 mg/kg/day in drinking water, Weeks 16 to 32), “significant differences (*, **)”. Moreover, the “grading score vs control, short term study” value in series [3] (Week 16, 0.001, 0.01 and 0.1 mg/kg/day in drinking water) was “Significant differences (*)”. Moreover, the “grading score (aging indicator), short term study” value in series [3] (in drinking water, up to 16 weeks, score of water group increased after Week 12) is on record as “did not increase”. Besides, in series [4], the “average life span (survival rate)” value was “average life span was extended”. Besides, the “safety in a preclinical study” value in series [5] is “highly safe”.
